Common to all, as to assay type: cell-based
Experiment [1] concerns untransfected CHO-K1 cells. Nature of the experiment: ACEA RT-CES cell impedance, untransfected CHO-K1 cells. Particulars: for effect on cell impedance (normalized cell index): P74C13V 10 uM, H2 Relaxin 1 uM, FIG. 11; for dose response activation (cell impedance): data not shown. The source says: ACEA RT-CES screen is a noninvasive and label-free assay for GPCRs that can be used with both engineered and nonengineered cell lines. The assay is based on using cell-electrode impedance to measure minute changes in cellular morphology as a result of ligand-dependent GPCR activation and is described in Naichen Yu, et al., Anal. Chem., 78 (1), 35-43, 2006. 10.1021/ac051695v S0003-2700(05)01695-1. The Rho family of small GTPases, which include Rho, Rac, and CDC42, are well-characterized effectors of oncogenes, growth factor and adhesion-mediated signaling pathways and are not classically thought of as being key effectors for GPCRs. Rho family GTPases participate in a number of cellular processes, the main one being regulation and maintenance of specific structures within the actin cytoskeleton framework. […] The current view of the actin cytoskeleton is that of a dynamic and plastic system that is a reflection and manifestation of the intracellular signaling and not simply a static structure designed to maintain cellular architecture. Since GPCRs couple to the actin cytoskeletal network and induce very defined morphological changes, it is possible to harness this information as a functional and biologically relevant readout for GPCRs.
ACEA biosciences; has designed electronic cell sensor arrays embedded in the bottom of the well of microtiter plates that are capable of measuring minute changes in cell morphology. The electronic sensors measure changes in cell-substrate impedance as a result of the disruption of the ionic environment due to the presence of cell and cell morphology dynamics. The main advantages offered by using cell-substrate impedance and cell morphology as a readout are that both exogenously expressed and endogenous receptors can be assayed without the need for engineering the cell with promiscuous G proteins and reporters or labeling the cells with dyes. In addition, since the readout is noninvasive, multiple stimulations with the same ligand or different ligands can be performed to assess events such as desensitization and receptor cross-talk. Finally, another major aspect of using cell-substrate impedance and cell morphology as a readout is that potentially all GPCRs, regardless of the signaling pathways, can be functionally monitored.
Peptides were synthesized by the solid phase peptide synthesis (SPPS) method, cleaved from the resin, and purified by RP-HPLC unless stated otherwise. […] Final purity of peptide was >90% as measured by RP-HPLC. […]
Before the transfected cells were seeded, […] SFM F12-HAM medium were added to each well of the E-plates and background levels were recorded.
Total cell number was calculated and cells were re-suspended in complete growth medium to cell concentration ranging from 0.3125×10^6/mL up to 0.4375×10^6/mL. […]

The target in a further experiment is T1, LGR4 (Homo sapiens, UniProt Q9BXB1).
T1 construct: expressed in transfected cells; host or cells: CHO-K1 (transient)
Nature of the experiment: ACEA RT-CES cell impedance, LGR4 transfected CHO-K1 cells. As to conditions: P74C13V 10 uM, H2 Relaxin 1 uM, FIG. 15. The source says:
(§1) ACEA RT-CES screen is a noninvasive and label-free assay for GPCRs that can be used with both engineered and nonengineered cell lines. The assay is based on using cell-electrode impedance to measure minute changes in cellular morphology as a result of ligand-dependent GPCR activation and is described in Naichen Yu, et al., Anal. Chem., 78 (1), 35-43, 2006. 10.1021/ac051695v S0003-2700(05)01695-1. The Rho family of small GTPases, which include Rho, Rac, and CDC42, are well-characterized effectors of oncogenes, growth factor and adhesion-mediated signaling pathways and are not classically thought of as being key effectors for GPCRs. […] Since GPCRs couple to the actin cytoskeletal network and induce very defined morphological changes, it is possible to harness this information as a functional and biologically relevant readout for GPCRs.
(§2) ACEA biosciences; has designed electronic cell sensor arrays embedded in the bottom of the well of microtiter plates that are capable of measuring minute changes in cell morphology. […] The main advantages offered by using cell-substrate impedance and cell morphology as a readout are that both exogenously expressed and endogenous receptors can be assayed without the need for engineering the cell with promiscuous G proteins and reporters or labeling the cells with dyes. […]

Another experiment addresses T2, GPR39 (Homo sapiens, UniProt O43194).
T2 construct: expressed in transfected cells; host or cells: CHO-K1 (transient, FuGENE6; pIRES-eGFP co-transfected)
T2 sequence (O43194 1-453): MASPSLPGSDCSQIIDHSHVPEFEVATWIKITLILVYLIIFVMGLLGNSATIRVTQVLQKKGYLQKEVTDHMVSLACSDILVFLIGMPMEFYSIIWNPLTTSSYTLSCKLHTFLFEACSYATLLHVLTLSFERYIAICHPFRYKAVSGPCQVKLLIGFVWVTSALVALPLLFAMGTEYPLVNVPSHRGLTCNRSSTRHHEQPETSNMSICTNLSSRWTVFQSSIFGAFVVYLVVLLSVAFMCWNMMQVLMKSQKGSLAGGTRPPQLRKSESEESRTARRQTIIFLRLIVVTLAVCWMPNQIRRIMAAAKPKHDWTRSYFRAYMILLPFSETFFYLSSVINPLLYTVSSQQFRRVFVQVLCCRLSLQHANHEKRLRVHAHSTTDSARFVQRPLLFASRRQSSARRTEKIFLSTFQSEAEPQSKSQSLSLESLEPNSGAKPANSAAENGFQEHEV
Nature of the experiment: ACEA RT-CES cell impedance, GPR39 transfected CHO-K1 cells. Particulars: P74C13V 10 uM, H2 Relaxin 1 uM, FIG. 12.
Description: as §1, §2

No end group written: not given here.

The record followed here is patent US8492329B2, “Bioactive peptides and methods of using same” (Compugen Ltd., priority 2007, dated 2013).

Take “GQKGQVGPPGAAVRRAYAAFSVGRRAYAAFSV-OH [Peptide P74C13V]”: the “effect on cell impedance (normalized cell index)” value in experiment [1] is listed as “moderate effect”; at LGR4, “moderate effect”; at GPR39, “moderate yet visible effect”. Moreover, the “dose response activation (cell impedance)” value in experiment [1] was “no dose dependent activation but only a moderate activation of the highest concentrations”.

Take “H2 Relaxin: H2 Relaxin (ACS), positive control, known ligand of LGR7 (RXFP1) [reference compound]”: the “effect on cell impedance (normalized cell index)” value in experiment [1] is “moderate effect”; with LGR4 it was “much stronger effect”; in the experiment with GPR39, “moderate yet visible effect”. Besides, the “dose response activation (cell impedance)” value in experiment [1] is “no dose dependent activation but only a moderate activation of the highest concentrations”.
